Measurements as given in patent US9944654B2, “Nargenicin compounds and uses thereof as antibacterial agents” (priority 2014, dated 2018).
pIC50: −log10 of the molar value. Converted amounts (≈) assume the structure as drawn. Read-outs that look alike come from different tables or passages of the source.

Assays:
[1] = target: T1, E. coli DnaE (DNA polymerase III α-subunit from Escherichia coli) (Escherichia coli, UniProt P10443); test: In vitro DnaE single enzyme assay (E. coli); type: biochemical; conditions: for IC50: read-out: E. coli DnaE IC50 (converted); for pIC50: E. coli DnaE IC50
T1 construct: EcDnaE (E. coli DnaE residues 1-1160); 6xHis (N); made in house; host or cells: E. coli BL21(DE3)
How it was run: (§1)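 3H-dTTP (0.011 mM) incorporation into DNase I-activated calf thymus DNA, alongside the other three dNTPs at 0.025 mM, measured by filter counting after TCA precipitation. Reactions ran 30 min at 30° C., started with purified N-His DnaE: 0.8 μg/ml for E. coli, 0.05 μg/ml for S. aureus.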

[2] = target: T2, S. aureus DnaE (DNA polymerase III α-subunit homolog from Staphylococcus aureus) (Staphylococcus aureus, UniProt Q5HF71); test: biochemical; type: biochemical; conditions: for pIC50: S. aureus DnaE IC50; for IC50: read-out: S. aureus DnaE IC50 (converted)
T2 construct: SaDnaE (S. aureus DnaE residues 1-1065); 6xHis (N); made in house; host or cells: E. coli BL21-AI
T2 sequence (Q5HF71 1-1065): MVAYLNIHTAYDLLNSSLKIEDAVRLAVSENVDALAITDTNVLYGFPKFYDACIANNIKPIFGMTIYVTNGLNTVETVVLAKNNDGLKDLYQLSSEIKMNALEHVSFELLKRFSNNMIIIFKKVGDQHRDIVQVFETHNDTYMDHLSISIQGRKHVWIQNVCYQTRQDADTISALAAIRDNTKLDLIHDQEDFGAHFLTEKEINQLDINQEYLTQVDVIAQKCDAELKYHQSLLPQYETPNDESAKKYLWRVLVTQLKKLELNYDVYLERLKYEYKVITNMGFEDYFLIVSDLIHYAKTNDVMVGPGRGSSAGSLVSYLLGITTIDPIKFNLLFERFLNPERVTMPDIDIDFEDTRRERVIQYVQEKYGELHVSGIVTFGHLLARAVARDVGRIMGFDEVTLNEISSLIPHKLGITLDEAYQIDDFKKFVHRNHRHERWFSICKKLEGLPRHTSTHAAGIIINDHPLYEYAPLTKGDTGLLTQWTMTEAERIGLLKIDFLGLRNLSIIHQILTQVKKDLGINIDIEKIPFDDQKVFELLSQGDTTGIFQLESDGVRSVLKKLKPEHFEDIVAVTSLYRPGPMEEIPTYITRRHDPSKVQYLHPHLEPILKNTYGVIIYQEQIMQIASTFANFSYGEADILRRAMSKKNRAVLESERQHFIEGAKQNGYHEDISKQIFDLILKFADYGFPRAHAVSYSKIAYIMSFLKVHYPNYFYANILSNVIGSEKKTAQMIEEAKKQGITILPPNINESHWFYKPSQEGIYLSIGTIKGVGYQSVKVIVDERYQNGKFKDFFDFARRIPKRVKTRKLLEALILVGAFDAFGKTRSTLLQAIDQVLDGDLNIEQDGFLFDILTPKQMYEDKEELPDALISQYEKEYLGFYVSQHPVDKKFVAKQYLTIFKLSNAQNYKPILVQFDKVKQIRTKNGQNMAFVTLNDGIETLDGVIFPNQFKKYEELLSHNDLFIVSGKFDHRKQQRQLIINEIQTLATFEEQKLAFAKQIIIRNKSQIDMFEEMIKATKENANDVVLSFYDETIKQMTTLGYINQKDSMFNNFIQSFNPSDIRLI
How it was run: as §1

[3] = system: Escherichia coli MB5747 (LS 883, tolC); test: microbe, parasite or virus in culture; type: cell-based; conditions: Escherichia coli, read-out: E. coli LS883 tolC (MIC), MHII broth; * = some reduction of growth versus control at […]
[4] = system: Pseudomonas aeruginosa MB5890 (CB1101, efflux-deleted); test: microbe, parasite or virus in culture; type: cell-based; conditions: Pseudomonas aeruginosa, read-out: P. aeruginosa MB5890 efflux-del (MIC), MHII broth; * = some reduction of growth versus control at […]
[5] = system: Staphylococcus aureus MB6266 (MRSA COL); test: Nargenicin antibacterial assay (MIC), S. aureus; type: cell-based; conditions: Staphylococcus aureus, MRSA, read-out: S. aureus COL (MIC), MHII broth + 50% human serum; * = some reduction of growth versus control at […]
[6] = system: Streptococcus pneumoniae MB6357 (CL 2883); test: Nargenicin antibacterial assay (MIC), S. pneumoniae; type: cell-based; conditions: Streptococcus pneumoniae, read-out: S. pneumoniae MB2883 (MIC), Isosensitest broth; * = some reduction of growth versus control at […]

T1 sequence (P10443 whole entry, the tested form may be a part): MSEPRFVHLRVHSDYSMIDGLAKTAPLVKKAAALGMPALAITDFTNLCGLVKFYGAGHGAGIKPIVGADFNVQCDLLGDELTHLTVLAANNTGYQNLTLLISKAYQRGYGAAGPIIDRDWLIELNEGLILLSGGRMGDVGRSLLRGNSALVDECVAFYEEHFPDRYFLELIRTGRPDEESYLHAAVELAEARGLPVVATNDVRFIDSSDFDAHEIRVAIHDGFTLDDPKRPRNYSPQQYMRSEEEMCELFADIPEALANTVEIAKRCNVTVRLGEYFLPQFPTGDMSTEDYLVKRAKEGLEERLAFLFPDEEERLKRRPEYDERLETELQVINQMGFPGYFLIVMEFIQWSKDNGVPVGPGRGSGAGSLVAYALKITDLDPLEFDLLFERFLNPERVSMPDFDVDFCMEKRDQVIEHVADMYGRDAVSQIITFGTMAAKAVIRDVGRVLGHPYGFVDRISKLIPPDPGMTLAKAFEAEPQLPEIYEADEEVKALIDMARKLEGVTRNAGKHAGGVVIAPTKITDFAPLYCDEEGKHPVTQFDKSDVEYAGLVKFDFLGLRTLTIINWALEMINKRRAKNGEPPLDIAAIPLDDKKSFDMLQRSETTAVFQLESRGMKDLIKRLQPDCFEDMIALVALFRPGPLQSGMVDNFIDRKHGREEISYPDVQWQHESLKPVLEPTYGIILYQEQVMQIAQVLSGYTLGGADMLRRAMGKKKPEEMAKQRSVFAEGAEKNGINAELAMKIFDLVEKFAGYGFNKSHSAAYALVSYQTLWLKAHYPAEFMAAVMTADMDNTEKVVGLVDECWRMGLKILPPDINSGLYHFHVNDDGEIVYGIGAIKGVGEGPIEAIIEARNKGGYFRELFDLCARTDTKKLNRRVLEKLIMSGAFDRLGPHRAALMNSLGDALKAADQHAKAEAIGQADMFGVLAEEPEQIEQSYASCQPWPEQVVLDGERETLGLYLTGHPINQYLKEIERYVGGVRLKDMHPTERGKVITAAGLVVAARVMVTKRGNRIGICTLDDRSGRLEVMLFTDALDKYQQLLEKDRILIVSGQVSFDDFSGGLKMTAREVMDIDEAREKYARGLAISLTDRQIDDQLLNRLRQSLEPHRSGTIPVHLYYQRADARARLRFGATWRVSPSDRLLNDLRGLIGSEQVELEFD

SMILES	IC50 [1]	pIC50 [2]	MIC [3]	MIC [4]	MIC [5]	MIC [6]	pIC50 [1]	IC50 [2]
C=CC[C@@H]1C(C)[C@@H](O)[C@@H]2[C@H]3C=C[C@@H]4C[C@H](OC)C(=O)O[C@H]([C@@H](C)O)[C@H](C)/C=C(\C)[C@@]24O[C@H]31 (stereo partly drawn) [Example 179, (3R,4S,7S,8aS,10aR,11S,12R,14R,14aS,14bS,E)-12-allyl-14-hydroxy-4-((R)-1-hydroxyethyl)-7-methoxy-1,3,13-trimethyl-3,4,8,8a,10a,11,12,13,14,14a-decahydro-11,14b-epoxynaphtho[2,1-e]oxecin-6(7H)-one]	> 112 µM	4.54	64 µg/mL (≈ 143 µM)	> 64 µg/mL	> 64 µg/mL	64 µg/mL (≈ 143 µM)		
CO[C@H]1C[C@H]2C=CC3C4[C@H](O)[C@@H](C)[C@@H](OC(=O)c5cc(NC(C)=O)c[nH]5)[C@@H]3O[C@]42/C(C)=C/[C@@H](C)[C@@H]([C@@H](C)O)OC1=O [Example 168, (3R,4S,7S,8aS,11R,12R,13R,14R,14bS,E)-14-hydroxy-4-((R)-1-hydroxyethyl)-7-methoxy-1,3,13-trimethyl-6-oxo-3,4,6,7,8,8a,10a,11,12,13,14,14a-dodecahydro-11,14b-epoxynaphtho[2,1-e]oxecin-12-yl 4-acetamido-1H-pyrrole-2-carboxylate]	> 87.3 µM	4.50	> 128 µg/mL	> 64 µg/mL	> 128 µg/mL	> 64 µg/mL		
CO[C@H]1C[C@H]2C=C[C@@H]3[C@H]4[C@H](O)[C@@H](C)C(=O)[C@@H]3O[C@]42/C(C)=C/[C@@H](C)[C@@H]([C@@H](C)O)OC1=O [Example 202]	> 238 µM	4.11	128 µg/mL (≈ 304 µM)	> 128 µg/mL	> 128 µg/mL	> 128 µg/mL		
C=CC[C@H]1[C@@H]2O[C@@]34/C(C)=C/[C@@H](C)[C@@H]([C@@H](C)O)OC(=O)[C@@H](OC)C[C@H]3C=C[C@@H]2[C@H]4C(=O)[C@@H]1C [Example 150, (3R,4S,7S,8aS,10aR,11S,12R,13R,14aR,14bS,E)-12-allyl-4-((R)-1-hydroxyethyl)-7-methoxy-1,3,13-trimethyl-3,4,8,8a,10a,11,12,13-octahydro-11,14b-epoxynaphtho[2,1-e]oxecine-6,14(7H,14aH)-dion]			> 64 µg/mL	> 64 µg/mL	> 64 µg/mL	64 µg/mL (≈ 144 µM)	< 3.95	5.62 µM
CO[C@H]1C[C@H]2C=C[C@H]3[C@H]4O[C@]2(/C(C)=C/[C@@H](C)[C@@H]([C@@H](C)O)OC1=O)[C@@H]3[C@H](O)[C@@H](C)[C@H]4OC(=O)c1ccc(Cl)[nH]1 [Example 44]	49.1 µM	> 7.96	8 µg/mL (≈ 14.5 µM)	128 µg/mL (≈ 233 µM)	16 µg/mL	64 µg/mL (≈ 116 µM)		
CO[C@H]1C[C@H]2[C@@H]3O[C@@H]3[C@H]3[C@H]4O[C@]2(/C(C)=C/[C@@H](C)[C@@H]([C@@H](C)O)OC1=O)[C@@H]3[C@H](O)[C@@H](C)[C@H]4OC(=O)c1ccc[nH]1 [Example 160, (1aS, 1bS,3S,6S,7R,9aS,9bS,10R,11R,12R,13R,13aS,13bR,E)-10-hydroxy-6-((R)-1-hydroxyethyl)-3-methoxy-7,9,11-trimethyl-4-oxo-1 a,lb,2,3,4,6,7,9b,10,11,12,13,13a,13b-tetradecahydro-9a,13-epoxyoxireno[2′,3′:3,4]naphtho[2,1-e]oxecin-12-yl 1H-pyrrole-2-carboxylate]			> 8 µg/mL	> 128 µg/mL	> 8 µg/mL	> 128 µg/mL	< 3.73	4.14 µM
CO[C@H]1C[C@H]2C=C[C@H]3[C@H]4O[C@]2(/C(C)=C/[C@@H](C)[C@@H]([C@@H](C)OC(=O)CCl)OC1=O)[C@@H]3[C@H](O)[C@@H](C)[C@H]4OC(=O)c1ccc[nH]1 [Example 59]	16.9 µM	> 7.99	0.25 µg/mL (≈ 0.422 µM)	16 µg/mL (≈ 27 µM)	0.25 µg/mL	64 µg/mL (≈ 108 µM)		
CO[C@H]1CC2C=C[C@H]3[C@H]4O[C@]2(/C(C)=C/[C@@H](C)[C@@H](C(C)=O)OC1=O)[C@@H]3[C@H](O)[C@@H](C)[C@H]4OC(=O)c1ccc[nH]1 (stereo partly drawn) [Example 177]	8.76 µM	> 7.93	0.5 µg/mL (≈ 0.974 µM)	8 µg/mL (≈ 15.6 µM)	1 µg/mL	> 128 µg/mL		
CO[C@H]1C[C@H]2[C@H](O)C[C@H]3[C@H]4O[C@]2(/C(C)=C/[C@@H](C)[C@@H]([C@@H](C)O)OC1=O)[C@@H]3[C@H](O)[C@@H](C)[C@H]4OC(=O)c1ccc[nH]1 [Example 191]	> 187 µM	5.13	128 µg/mL (≈ 240 µM)	> 128 µg/mL	> 128 µg/mL	> 128 µg/mL		
CO[C@H]1C[C@H]2C=C[C@H]3[C@H]4O[C@]2(/C(C)=C/[C@@H](C)[C@@H]([C@@H](C)O)OC1=O)[C@@H]3[C@H](O)[C@@H](C)[C@H]4OC(=O)c1cccn1C [Example 196]	> 189 µM	5.01	64 µg/mL (≈ 121 µM)	> 128 µg/mL	> 128 µg/mL	128 µg/mL (≈ 242 µM)		
CO[C@H]1C[C@H]2C=CC3C4[C@H](O)[C@@H](C)[C@@H](OC(=O)c5ccc[nH]5)[C@@H]3O[C@]42/C(C)=C/[C@@H](C)[C@@H]([C@@H](C)OC(=O)Nc2nnn[nH]2)OC1=O [Example 65]	16 µM	> 8.02	2 µg/mL (≈ 3.19 µM)	64 µg/mL (≈ 102 µM)	2 µg/mL	> 128 µg/mL		
CO[C@H]1CC2C=C[C@H]3[C@H]4O[C@]2(/C(C)=C/[C@@H](C)[C@@H](C(C)O)OC1=O)[C@@H]3[C@H](O)[C@@H](C)[C@H]4OC(=O)c1ccc[nH]1 (stereo partly drawn) [Example 145, Nargenicin A1, reference compound]	1.75 µM	> 7.93	0.25 µg/mL (≈ 0.485 µM)	4 µg/mL (≈ 7.76 µM)	0.25 µg/mL	> 128 µg/mL		
CO[C@H]1C[C@H]2C=C[C@H]3[C@H]4O[C@]2(/C(C)=C/[C@@H](C)[C@@H]([C@@H](C)OC(=O)NCCN(C)C)OC1=O)[C@@H]3[C@H](O)[C@@H](C)[C@H]4OC(=O)c1ccc[nH]1 [Example 5]			16 µg/mL (≈ 25.4 µM)	> 128 µg/mL	32 µg/mL	> 128 µg/mL	< 3.80	0.0143 µM
CO[C@H]1CC2C=C[C@H]3[C@H]4O[C@]2(/C(C)=C/[C@@H](C)[C@@H]([C@@H](C)OC(=O)NCCO)OC1=O)[C@@H]3[C@H](O)[C@@H](C)[C@H]4OC(=O)c1ccc[nH]1 (stereo partly drawn) [Example 15]	~183 µM	> 8.00	4 µg/mL (≈ 6.64 µM)	128 µg/mL (≈ 212 µM)	8 µg/mL	> 128 µg/mL		
C=C1C[C@H]2[C@H]3O[C@]4(/C(C)=C/[C@@H](C)[C@@H]([C@@H](C)O)OC(=O)[C@@H](OC)C[C@@H]14)[C@@H]2[C@H](O)[C@@H](C)[C@H]3OC(=O)c1ccc[nH]1 [Example 199]	142 µM	7.55	16 µg/mL (≈ 30.2 µM)	> 128 µg/mL	32 µg/mL	> 128 µg/mL		
